Here are results for seven compounds from publication PMC12297887, “Enhanced Anticancer Potential of Pd(II)-Thiosemicarbazone Complexes: Selectivity, Mechanisms, and 3D Models” (Pharmaceutics, 2025).

Data set [1] concerns MDA-MB-231 (triple-negative breast cancer). The data set can be described thus: Cell viability (MTT), MDA-MB-231. The class given is cell-based, human. The following applies: for IC50: 48 h of incubation, MTT; for Selectivity index (SI) MDA-MB-231: IC50 MRC5 / IC50 MDA-MB-231. How it is done: (§1) The cell lines used in the tests were A2780 (ovarian cancer), A2780cis (ovarian cisplatin resistant cancer), A549 (lung cancer), MRC5 (non-tumoral lung […]), MDA-MB-231 (triple-negative breast cancer), MCF-7 (breast cancer), SK-BR-3 (breast cancer), MCF-10A (non-tumoral breast cancer), and A375 (skin cancer—melanoma).
(§2) The MCF-10A cell line was grown in DMEM/F-12 culture medium, supplemented with 5% horse serum, human epidermal growth factor (EGF) (20 ng/mL), hydrocortisone (0.05 mg/mL), insulin (0.01 mg/mL), penicillin (1%), streptomycin (1%), and L-glutamine (2 mM). The A2780, A2780cis, and MCF-7 cell lines were cultured in RPMI-1640 medium, and the other lines in DMEM medium; both culture media were supplemented with 10% (v/v) FBS (fetal bovine serum), antibiotics, and antimycotics. Cultivation was carried out in culture flasks stored in a humid incubator at 37 °C, with an atmosphere of 5% CO2.
(§3) The plates were kept for 24 h in a humidified incubator (37 °C, 5% CO2), after which 0.75 μL of a DMSO solution (0.5% v/v) containing the compounds of interest was added to each well. The plates were then incubated for a further 48 h. The ratio of viability of cells was obtained using the MTT method. Through its reduction via the mitochondrial process, purple formazan is formed, which is proportional to cell viability. After incubating the microplates, 50 μL of a solution of MTT (1 mg∙mL^−1) in PBS was added to each well and the cells were incubated again in the oven for 4 h. Finally, the solution was removed from each well and 100 μL of isopropyl alcohol with 10% DMSO was added to solubilize the Formazan crystals. Absorbance measurements (540 nm) were then taken in each well using a BioTek EPOCH spectrophotometer (BioTek, Winooski, WT, USA). The data obtained was analyzed using Excel 360 and GraphPadPrism 8.0.2.

The subject of the next data set is MCF-7 (breast cancer). The data set can be described thus: Cell viability (MTT), MCF-7. Format: cell-based, human. Conditions: for IC50: 48 h of incubation, MTT; for Selectivity index (SI) MCF-7: IC50 MRC5 / IC50 MCF-7. As to the method:
as §1, §2, §3

The next data set concerns SK-BR-3 (breast cancer). The data set can be described thus: Cell viability (MTT), SK-BR-3. The class given is cell-based, human. Conditions: for IC50: 48 h of incubation, MTT; for Selectivity index (SI) SK-BR-3: IC50 MRC5 / IC50 SK-BR-3. How it is done:
as §1, §2, §3

The subject of data set [2] is MCF-10A (non-tumoral breast). The data set can be described thus: Cell viability (MTT), MCF-10A. Format: cell-based, human. Conditions: 48 h of incubation, non-tumorigenic breast line, read-out: IC50 MFC-10A. How it is done:
as §1, §2, §3

The subject of another data set is A2780 (ovarian cancer). The data set can be described thus: Cell viability (MTT), A2780. Format: cell-based. The following applies: for IC50: 48 h of incubation, MTT; for Selectivity index (SI) A2780: IC50 MRC5 / IC50 A2780. How it is done:
as §1, §2, §3

In data set [3] the test system is A2780cis (ovarian cisplatin resistant cancer). As to the kind of experiment: Cell viability (MTT), A2780cis. Format: cell-based. Conditions: for IC50: 48 h of incubation, MTT; for resistance factor (RF): IC50(A2780cis)/IC50(A2780); for Selectivity index (SI) A2780cis: IC50 MRC5 / IC50 A2780cis. How it is done:
as §1, §2, §3

For a further data set, the system named is A549 (lung cancer). As to the kind of experiment: Cell viability (MTT), A549. Format: cell-based. Conditions: for IC50: 48 h of incubation, MTT; for Selectivity index (SI) A549: IC50 MRC5 / IC50 A549. As to the method: as §1, §2, §3
In another data set the test system is MRC5 (non-tumoral lung). As to the kind of experiment: Cell viability (MTT), MRC5. Format: cell-based. Conditions: 48 h of incubation, non-tumor lung fibroblast. As to the method:
as §1, §2, §3

Data set [4] has as its system A375 (skin cancer, melanoma). The data set can be described thus: Cell viability (MTT), A375. The class given is cell-based. Conditions: 48 h of incubation. As to the method: as §1, §2, §3
Data set [5] can be described thus: Stability in DMSO by 31P{1H} NMR. The class given is physicochemical. The following applies: d6-DMSO, after 48 h, no change in chemical shift. As to the method:
The ^31P{^1H} NMR experiment was also carried out and the chemical shift values of the different complexes synthesized were similar to each other. There was a shift in the free PPh3 signal from −6.81 ppm to 30 ppm (Figure S12), indicating a reduction in the electronic density at the P of the triphenylphosphine due to coordination with Pd(II). Also, the PdB3 complex was tested for stability in DMSO.

In a further data set the test system is A2780cis cells. As to the kind of experiment: Clonogenic assay. The following applies: concentrations in relation to the IC50 of each complex, five days of treatment. Format: cell-based. How it is done: For this test, 600 cells of the A2780cis strain were added to each well of a six-well microplate. After incubating for 24 h in a 5% CO2 atmosphere, different concentrations of the compounds were added to the wells and incubated again for five days. After this period, the culture medium was changed and the plates were incubated for a further five days. Finally, the culture medium was removed and washed with PBS. Subsequently, a solution of methanol and acetic acid (3:1 v/v) was added for five minutes, and then the cells were stained with methyl violet solution. The plates were washed with distilled water. After drying, they were photographed using the iBright™ FL1500 (ThermoFisher, Waltham, MA, USA) and analyzed using ImageJ 1.53 software.

SMILES strings stand for the structures.

For the compound `N.N.[Cl][Pt][Cl]` [Cisplatin, reference compound], the half-maximal inhibitory concentration (IC50) (commonly the midpoint of a concentration-inhibition curve) turned out to be 33.14 ± 0.3 µM in data set [1]; 8.64 ± 0.8 µM in the data set with MCF-7 (breast cancer); 5.86 ± 0.2 µM in the data set with SK-BR-3 (breast cancer); 23.9 ± 0.7 µM in data set [2]; 14.24 ± 0.05 µM with A2780 (ovarian cancer); 25.1 ± 0.9 µM in data set [3]. For the same compound, the IC50 amounted to 13 ± 0.4 µM in the data set on A549 (lung cancer), 21.6 ± 0.8 µM in the data set with MRC5 (non-tumoral lung) and 12.2 ± 0.62 µM in data set [4]. For the same compound, the “Selectivity index (SI) MDA-MB-231” value in [1] is 0.7. Besides, in the data set on MCF-7 (breast cancer), the “Selectivity index (SI) MCF-7” value is 2.5. Moreover, the “Selectivity index (SI) SK-BR-3” value in the data set with SK-BR-3 (breast cancer) is recorded as 3.7. Further, the “Selectivity index (SI) A2780” value in the data set on A2780 (ovarian cancer) is recorded as 1.5. Also, the “resistance factor (RF)” value in [3] was determined as 1.76. The “Selectivity index (SI) A2780cis” value in data set [3] is 0.9. Further, in the data set with A549 (lung cancer), the “Selectivity index (SI) A549” value came to 1.7.

`CNC(NN=C(C)C=Cc1ccccc1)=[S][Pd]([Cl])[P](c1ccccc1)(c1ccccc1)c1ccccc1.[Cl-]` [PdB2]: in [1], the half-maximal inhibitory concentration (IC50) came to 0.92 ± 0.08 µM and the “Selectivity index (SI) MDA-MB-231” value is 7.4. Besides, in the data set with MCF-7 (breast cancer), the IC50 came out at 1.47 ± 0.2 µM and the “Selectivity index (SI) MCF-7” value stood at 4.7. Also, in the data set with SK-BR-3 (breast cancer), the IC50 came to 1.48 ± 0.06 µM and the “Selectivity index (SI) SK-BR-3” value is recorded as 4.6. Also, in the data set on A2780 (ovarian cancer), the IC50 was determined as 0.13 ± 0.01 µM and the “Selectivity index (SI) A2780” value is 52.7. In addition, in [3], the IC50 was 0.21 ± 0.01 µM, the “resistance factor (RF)” value is reported as 1.62 and the “Selectivity index (SI) A2780cis” value stood at 32.6. Also, in the data set on A549 (lung cancer), half-maximal inhibition (IC50) required 30.4 ± 0.4 µM and the “Selectivity index (SI) A549” value was determined as 0.2. In the data set on MRC5 (non-tumoral lung), this compound gave a 50% inhibitory concentration (IC50) of 6.85 ± 0.3 µM.

On to `CCNC1=[S+][Pd-]([Cl])([PH](c2ccccc2)(c2ccccc2)c2ccccc2)[N+](=C(C)/C=C/c2ccccc2)N1.[Cl-]` [PdB3, [PdCl(L-B3)(PPh3)]Cl], for which, in data set [1], half-maximal inhibition (IC50) was put at 1.04 ± 0.06 µM and the “Selectivity index (SI) MDA-MB-231” value is 8.9. For the same compound, in the data set with MCF-7 (breast cancer), half-maximal inhibition (IC50) required 0.91 ± 0.008 µM and the “Selectivity index (SI) MCF-7” value was found to be 10.2. This compound also came in with an IC50 with SK-BR-3 (breast cancer) below 2 µM. In the data set with A2780 (ovarian cancer), the concentration for half-maximal inhibition (IC50) was 0.23 ± 0.01 µM and the “Selectivity index (SI) A2780” value is reported as 40.3. Further, in [3], the IC50 was 0.26 ± 0.01 µM, the “resistance factor (RF)” value was 1.13 and the “Selectivity index (SI) A2780cis” value is reported as 35.7. In the data set with A549 (lung cancer), half-maximal inhibition (IC50) required 13 ± 1 µM and the “Selectivity index (SI) A549” value is given as 0.7. Inhibition in the data set with MRC5 (non-tumoral lung) was half-maximal at 9.28 ± 0.3 µM (IC50). Also, in [5], the “stability in DMSO” value was “remained stable”.

For `NC1=[S+][Pd-]([Cl])([PH](c2ccccc2)(c2ccccc2)c2ccccc2)[N+](=C(/C=C/c2ccccc2)c2ccccc2)N1.[Cl-]` [PdC1, [PdCl(L-C1)(PPh3)]Cl], the IC50 in data set [1] stood at 5.97 ± 0.1 µM; in the data set with MCF-7 (breast cancer), 17.7 ± 1 µM; in the data set on SK-BR-3 (breast cancer), 2.25 ± 0.3 µM; in data set [2], 2.64 ± 0.06 µM; in the data set on A2780 (ovarian cancer), 0.4 ± 0.01 µM; in [3], 0.62 ± 0.01 µM. The IC50 with A549 (lung cancer) was above 50 µM; in the data set on MRC5 (non-tumoral lung), 46.8 ± 2 µM; in data set [4] it was above 50 µM. The “Selectivity index (SI) MDA-MB-231” value in [1] came out at 7.8. Besides, the “Selectivity index (SI) MCF-7” value in the data set with MCF-7 (breast cancer) was determined as 2.6. Moreover, in the data set on SK-BR-3 (breast cancer), the “Selectivity index (SI) SK-BR-3” value amounted to 20.8. For the same compound, the “Selectivity index (SI) A2780” value in the data set with A2780 (ovarian cancer) is 116.9. Moreover, the “resistance factor (RF)” value in data set [3] was 1.55. Further, in data set [3], the “Selectivity index (SI) A2780cis” value stood at 75.4. Moreover, the colony formation result with A2780cis cells was “reduced colony formation”.

As for `CNC1=[S+][Pd-]([Cl])([PH](c2ccccc2)(c2ccccc2)c2ccccc2)[N+](=C(/C=C/c2ccccc2)c2ccccc2)N1.[Cl-]` [PdC2, [PdCl(L-C2)(PPh3)]Cl], the IC50 in data set [1] was 9.66 ± 0.4 µM; with MCF-7 (breast cancer) it was above 50 µM; in the data set with SK-BR-3 (breast cancer) it was above 50 µM; in the data set on A2780 (ovarian cancer), 3.93 ± 0.2 µM; in [3], 1.66 ± 0.01 µM; in the data set with A549 (lung cancer), above 50 µM. Besides, the IC50 in the data set on MRC5 (non-tumoral lung) was above 50 µM. In addition, the “resistance factor (RF)” value in data set [3] came out at 0.42.

`CCNC1=[S+][Pd-]([Cl])([PH](c2ccccc2)(c2ccccc2)c2ccccc2)[N+](=C(/C=C/c2ccccc2)c2ccccc2)N1.[Cl-]` [PdC3, [PdCl(L-C3)(PPh3)]Cl]: the IC50 was above 50 µM in data set [1]; above 50 µM in the data set on MCF-7 (breast cancer); above 50 µM with SK-BR-3 (breast cancer); 22.8 ± 1 µM in the data set with A2780 (ovarian cancer); 11.1 ± 0.6 µM in data set [3]; above 50 µM with A549 (lung cancer). For the same compound, the IC50 in the data set on MRC5 (non-tumoral lung) was above 50 µM. Further, in data set [3], the “resistance factor (RF)” value was 0.48.

Regarding `CC#N.CC#N.[Cl][Pd][Cl]` [[PdCl2(MeCN)2], reference compound], the IC50 (in data set [1]; in data set [3]; in the data set on A549 (lung cancer); in the data set on MRC5 (non-tumoral lung)) was above 50 µM in each case.
